For data set [1], the target named is Serine/threonine-protein kinase PLK1 (Homo sapiens, UniProt P53350). Nature of the data set: Inhibition of recombinant GST-tagged PLK1 using biotin-ahx-AKMETTFYDDALNASFLPSEKKK-amide as substrate after 30 mins by scintillation counting analysis in presence of gamma-[33P]ATP.
A further data set concerns MIA PaCa-2. Nature of the data set: Antitumor activity against human MIAPaCa2 cells xenografted in SCID mouse assessed as tumor growth inhibition at 120 mg/kg/day, ip measured on day 21 to day 44 relative to vehicle-treated control. The format is functional, organism-based. (In general: A xenograft is tissue or cells of one species grown in another, often human tumour cells in immunodeficient mice.)

Data set [2] in a line: Half life in mouse. The format is ADME, organism-based. The conditions noted are these: in vivo.
Data set [3] in a line: Oral bioavailability in mouse. Particulars: in vivo. In kind it is ADME, organism-based.

The text below walks through data of ChEMBL document CHEMBL2203238, “Hit to Lead optimization of a novel class of squarate-containing polo-like kinases inhibitors” (Bioorg Med Chem Lett, 2012).

Each structure is given as a SMILES string. The source made the active and inactive calls. No cut-off for these calls is given here.

Sequence of Serine/threonine-protein kinase PLK1 (P53350 whole entry): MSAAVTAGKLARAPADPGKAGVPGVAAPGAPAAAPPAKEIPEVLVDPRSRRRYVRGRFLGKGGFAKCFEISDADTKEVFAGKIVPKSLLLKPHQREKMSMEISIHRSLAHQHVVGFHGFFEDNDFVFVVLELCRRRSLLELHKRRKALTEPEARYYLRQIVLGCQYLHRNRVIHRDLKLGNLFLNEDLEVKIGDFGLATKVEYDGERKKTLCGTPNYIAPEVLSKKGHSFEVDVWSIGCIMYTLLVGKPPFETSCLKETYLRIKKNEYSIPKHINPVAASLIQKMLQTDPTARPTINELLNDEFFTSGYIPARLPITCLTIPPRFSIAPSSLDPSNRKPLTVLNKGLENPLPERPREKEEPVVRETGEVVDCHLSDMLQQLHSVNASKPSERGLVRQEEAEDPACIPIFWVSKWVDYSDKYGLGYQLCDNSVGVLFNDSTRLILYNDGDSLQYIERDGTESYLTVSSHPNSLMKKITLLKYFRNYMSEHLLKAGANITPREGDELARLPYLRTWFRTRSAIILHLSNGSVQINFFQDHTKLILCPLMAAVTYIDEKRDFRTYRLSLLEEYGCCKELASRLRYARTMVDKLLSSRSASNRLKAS

Consider `CC(C)C(C)Nc1c(Nc2ccnc(Nc3ccc(-c4ccccc4)cc3)n2)c(=O)c1=O` (centres undefined), for which, in data set [1], the Ki was 166 nM.

Turning to `CCC(C)(C)Nc1c(Nc2ccnc(Nc3ccc(-c4ccccc4)cc3)n2)c(=O)c1=O`, the Ki in data set [1] came out at 13 nM.

Turning to `CC(C)(C)Nc1c(Nc2ccnc(Nc3ccc4ncsc4c3)n2)c(=O)c1=O`, the Ki in data set [1] was found to be 43 nM.

As to `Nc1ccn([C@@H]2O[C@H](CO)[C@@H](O)C2(F)F)c(=O)n1`, the TGI entry in the data set with MIA PaCa-2 was “Active”.

Take `CC(C)(C)Nc1c(Nc2ccnc(Nc3ccc4[nH]ncc4c3)n2)c(=O)c1=O`: the Ki in data set [1] stood at 17 nM.

Regarding `C[C@@H](Nc1c(Nc2ccnc(Nc3cccnc3)n2)c(=O)c1=O)C(C)(C)C`, in data set [1], the Ki is more than 44000 nM.

Consider `CC(C)(C)Nc1c(Nc2ccnc(Nc3ccc(-c4cn[nH]c4)cc3)n2)c(=O)c1=O`, for which the Ki in data set [1] was found to be 10 nM.

Take `C[C@@H](Nc1c(Nc2ccnc(Nc3ccc4c(c3)Cc3ccccc3-4)n2)c(=O)c1=O)C(C)(C)C`: in data set [1], the Ki is 41 nM.

Turning to `C[C@@H](Nc1c(Nc2cccnc2)c(=O)c1=O)C(C)(C)C`, the Ki in data set [1] is more than 44000 nM.

Take `C[C@@H](Nc1c(Nc2ccnc(Nc3cccc(-c4ccccc4)c3)n2)c(=O)c1=O)C(C)(C)C`: in data set [1], the Ki worked out at 333 nM.

Consider `C[C@@H](Nc1c(Nc2ccnc(Nc3ccc(Br)cc3)n2)c(=O)c1=O)C(C)(C)C`, for which the Ki in data set [1] turned out to be 354 nM.

Turning to `CC(C)CC(C)Nc1c(Nc2ccnc(Nc3ccc(-c4ccccc4)cc3)n2)c(=O)c1=O` (centres undefined), the inhibitory constant (Ki) in data set [1] is 1180 nM.

For `C[C@@H](Nc1c(Nc2ccnc(Nc3cccc4ccccc34)n2)c(=O)c1=O)C(C)(C)C`, in data set [1], the Ki came out at 315 nM.

Regarding `COc1cc(Nc2ncc(C#N)c(Nc3c(N[C@H](C)C(C)(C)C)c(=O)c3=O)n2)cc(OC)c1OC`, in data set [1], the Ki turned out to be 7720 nM.

Take `CC(Nc1c(Nc2ccnc(Nc3ccc(-c4ccccc4)cc3)n2)c(=O)c1=O)c1ccccc1` (centres undefined): the inhibition constant (Ki) in data set [1] was 24900 nM.

Regarding `CC(C)(C)Nc1c(Nc2ccnc(Nc3ccc4c(c3)[nH]c3ccccc34)n2)c(=O)c1=O`, the inhibition constant Ki in data set [1] came out at 10 nM.

In the case of `CC(C)(C)Nc1c(Nc2nc(Nc3ccc4c(c3)Cc3ccccc3-4)ncc2F)c(=O)c1=O`, in data set [1], the Ki was more than 8800 nM.

As for `COc1ccc(Nc2nccc(Nc3c(N[C@H](C)C(C)(C)C)c(=O)c3=O)n2)c(OC)c1`, the Ki in data set [1] came out at 771 nM.

With `C[C@@H](Nc1c(Nc2ccnc(Nc3ccncc3)n2)c(=O)c1=O)C(C)(C)C`, in data set [1], the Ki was more than 44000 nM.

As for `O=c1c(Nc2ccc(OC(F)(F)F)cc2)c(Nc2ccnc(Nc3ccc(-c4ccccc4)cc3)n2)c1=O`, the Ki in data set [1] came to 17600 nM.

As to `C[C@@H](Nc1c(Nc2ccnc(Nc3ccc(F)cc3)n2)c(=O)c1=O)C(C)(C)C`, in data set [1], the Ki was determined as 232 nM.

With `COc1ccc(Nc2nccc(Nc3c(N[C@H](C)C(C)(C)C)c(=O)c3=O)n2)cc1`, the Ki in data set [1] amounted to 141 nM.

As to `CC(C)(C)Nc1c(Nc2ccnc(Nc3ccc4c(c3)Cc3ccccc3-4)n2)c(=O)c1=O`, the Ki in data set [1] was 4 nM.

As for `O=c1c(NCCN2CCOCC2)c(Nc2ccnc(Nc3ccc(-c4ccccc4)cc3)n2)c1=O`, the Ki in data set [1] was found to be 8530 nM.

In the case of `C[C@@H](Nc1c(Nc2ccnc(Nc3ccc4c(c3)OCCO4)n2)c(=O)c1=O)C(C)(C)C`, in data set [1], the Ki is 255 nM.

With `C[C@@H](Nc1nccc(Nc2c(N[C@H](C)C(C)(C)C)c(=O)c2=O)n1)c1ccccc1`, the Ki in data set [1] was found to be 9930 nM.

Regarding `C[C@@H](Nc1c(Nc2ccnc(Nc3ccccc3)n2)c(=O)c1=O)C(C)(C)C`, in data set [1], the Ki was 465 nM.

With `CC(=O)N1CCc2cc(Nc3nccc(Nc4c(NC(C)(C)C)c(=O)c4=O)n3)ccc21`, in data set [1], the Ki came to 20 nM.

In the case of `CC(C)(C)Nc1c(Nc2ccnc(Nc3ccc4c(c3)CCO4)n2)c(=O)c1=O`, the inhibitory constant (Ki) in data set [1] is 22 nM.

Regarding `COc1cc(Nc2nccc(Nc3c(N[C@H](C)C(C)(C)C)c(=O)c3=O)n2)cc(OC)c1OC`, the Ki in data set [1] stood at 234 nM.

With `C[C@@H](Nc1c(Nc2ccnc(Nc3ccc(Cl)cc3)n2)c(=O)c1=O)C(C)(C)C`, the Ki in data set [1] amounted to 272 nM.

Take `C[C@@H](Nc1c(Nc2ccccc2)c(=O)c1=O)C(C)(C)C`: the inhibitory constant (Ki) in data set [1] worked out at 32000 nM.

For the molecule `CC(C)(C)Nc1c(Nc2ccnc(Nc3ccc(-c4csnn4)cc3)n2)c(=O)c1=O`, the inhibition constant Ki in data set [1] came to 15 nM.

Regarding `C[C@@H](Nc1c(Nc2ccnc(Nc3ccc4c(c3)OCO4)n2)c(=O)c1=O)C(C)(C)C`, the Ki in data set [1] was determined as 165 nM.

For `C[C@@H](Nc1c(Nc2ccnc(Nc3ccc4ccccc4c3)n2)c(=O)c1=O)C(C)(C)C`, the Ki in data set [1] came out at 85 nM.

`CC(C)(C)Nc1c(Nc2ccnc(Nc3ccc(-c4ccccn4)cc3)n2)c(=O)c1=O`: in data set [1], the Ki amounted to 82 nM.

Take `CC(C)(C)Nc1c(Nc2ccnc(Nc3ccc(N4CCOCC4)cc3)n2)c(=O)c1=O`: in data set [1], the inhibition constant Ki worked out at 175 nM.

Consider `CC(C)(C)Nc1c(Nc2ccnc(Nc3ccc(-c4ccccc4)cc3)n2)c(=O)c1=O`, for which, in data set [1], the inhibition constant Ki amounted to 14 nM.

Regarding `C[C@@H](Nc1c(Nc2ccnc(Nc3ccc(Oc4ccccc4)cc3)n2)c(=O)c1=O)C(C)(C)C`, the Ki in data set [1] came to 276 nM.

With `Cc1ccc(Nc2nccc(Nc3c(N[C@H](C)C(C)(C)C)c(=O)c3=O)n2)cc1`, the Ki in data set [1] came out at 1010 nM.

For `CC(C)(C)Nc1c(Nc2ccnc(Nc3ccc(-c4cccnc4)cc3)n2)c(=O)c1=O`, the inhibition constant Ki in data set [1] turned out to be 28 nM.

Turning to `C[C@@H](Nc1c(Nc2ccncc2)c(=O)c1=O)C(C)(C)C`, in data set [2], the half-life is 23.4 min. Besides, in data set [3], the bioavailability came out at 54%.

With `C[C@H](Nc1c(Nc2ccnc(Nc3ccc(-c4ccccc4)cc3)n2)c(=O)c1=O)C(C)(C)C`, in data set [1], the Ki turned out to be 47 nM.

Turning to `O=c1c(NCC2CC2)c(Nc2ccnc(Nc3ccc(-c4ccccc4)cc3)n2)c1=O`, the Ki in data set [1] is 14000 nM.

Consider `C[C@@H](Nc1c(Nc2ccnc(Nc3ccc(OC(F)(F)F)cc3)n2)c(=O)c1=O)C(C)(C)C`, for which the inhibition constant (Ki) in data set [1] is 610 nM.

In the case of `C[C@@H](Nc1c(Nc2ccnc(Nc3ccc(-c4ccccc4)cc3)n2)c(=O)c1=O)C(C)(C)C`, the Ki in data set [1] was determined as 75 nM.

`CC(C)(C)CNc1c(Nc2ccnc(Nc3ccc(-c4ccccc4)cc3)n2)c(=O)c1=O`: the Ki in data set [1] turned out to be 1800 nM.

Turning to `C[C@@H](Nc1c(Nc2ccnc(Nc3ccccn3)n2)c(=O)c1=O)C(C)(C)C`, the inhibition constant Ki in data set [1] came out at 40800 nM.

As usually defined, the Ki is the dissociation constant of the complex between target and ligand, obtained from inhibition or displacement. A word on the half-life: it is the time in which the quantity being followed falls by half. A word on the bioavailability: it is dose-corrected exposure relative to a reference, in per cent. A low value points to poor availability.
